For 22 compounds, IC50 results are on record in BindingDB's records for doi:10.1021/jm980217s (Abbott Laboratories, 1998).

The IC50 is the concentration at which inhibition is half-maximal.

Some results are limits rather than exact numbers.

A short description of this assay: Binding affinity for endothelin B receptor by measuring its ability to displace [125I]-ET-3 from porcine cerebellar tissue.

The compound `CCCCN(CCCC)C(=O)CN1C[C@H](c2ccc3c(c2)OCO3)[C@@H](C(=O)O)[C@@H]1CCCC1OCCO1` [(2S,3R,4S)-4-Benzo[1,3]dioxol-5-yl-1-dibutylcarbamoylmethyl-2-(3-[1,3]dioxolan-2-yl-propyl)-pyrrolidine-3-carboxylic acid] registered an IC50 of 50 µM.

For `CCCCN(CCCC)C(=O)CN1C[C@H](c2ccc3c(c2)OCO3)[C@@H](C(=O)O)[C@@H]1CCn1ccccc1=O` [(2S,3R,4S)-4-Benzo[1,3]dioxol-5-yl-1-dibutylcarbamoylmethyl-2-[2-(2-oxo-2H-pyridin-1-yl)-ethyl]-pyrrolidine-3-carboxylic acid], the IC50 stood at 41 µM.

In turn, `C/C=C(\C)CC[C@H]1[C@H](C(=O)O)[C@@H](c2ccc3c(c2)OCO3)CN1CC(=O)N(CCCC)CCCC` [(2S,3R,4S)-4-Benzo[1,3]dioxol-5-yl-1-dibutylcarbamoylmethyl-2-((E)-3-methyl-pent-3-enyl)-pyrrolidine-3-carboxylic acid] came in with a half-maximal inhibitory concentration (IC50) of 48 µM.

As to `CCCCN(CCCC)C(=O)CN1C[C@H](c2ccc3c(c2)OCO3)[C@@H](C(=O)O)[C@@H]1CCC1CCCCO1` (stereo partly drawn) [(2S,3R,4S)-4-Benzo[1,3]dioxol-5-yl-1-dibutylcarbamoylmethyl-2-[2-(tetrahydro-pyran-2-yl)-ethyl]-pyrrolidine-3-carboxylic acid], the IC50 is 47.8 µM.

The compound `CCCCC[C@H]1[C@H](C(=O)O)[C@@H](c2ccc3c(c2)OCO3)CN1CC(=O)N(CCCC)CCCC` [(2S,3R,4S)-4-Benzo[1,3]dioxol-5-yl-1-dibutylcarbamoylmethyl-2-pentyl-pyrrolidine-3-carboxylic acid] gave an IC50 of 47 µM.

As to `CCCCN(CCCC)C(=O)CN1C[C@H](c2ccc3c(c2)OCO3)[C@@H](C(=O)O)[C@@H]1CC(C)(C)C=C(C)C` [(2S,3R,4S)-4-Benzo[1,3]dioxol-5-yl-1-dibutylcarbamoylmethyl-2-(2,2,4-trimethyl-pent-3-enyl)-pyrrolidine-3-carboxylic acid], the IC50 was found to be 64 µM.

As for `CCCCN(CCCC)C(=O)CN1C[C@H](c2ccc3c(c2)OCO3)[C@@H](C(=O)O)[C@@H]1CCc1cccn1C` [(2S,3R,4S)-4-Benzo[1,3]dioxol-5-yl-1-dibutylcarbamoylmethyl-2-[2-(1-methyl-1H-pyrrol-2-yl)-ethyl]-pyrrolidine-3-carboxylic acid], the 50% inhibitory concentration (IC50) was determined as 43.6 µM.

On to `CCCCN(CCCC)C(=O)CN1C[C@H](c2ccc3c(c2)OCO3)[C@@H](C(=O)O)[C@@H]1C(C)(C)CCCC` [(2R,3R,4S)-4-Benzo[1,3]dioxol-5-yl-1-dibutylcarbamoylmethyl-2-(1,1-dimethyl-pentyl)-pyrrolidine-3-carboxylic acid], for which the IC50 was 36 µM.

`CCCCN(CCCC)C(=O)CN1C[C@H](c2ccc3c(c2)OCO3)[C@@H](C(=O)O)[C@@H]1CCC=C1CC1` [(2S,3R,4S)-4-Benzo[1,3]dioxol-5-yl-2-(3-cyclopropylidene-propyl)-1-dibutylcarbamoylmethyl-pyrrolidine-3-carboxylic acid] gave an IC50 of 10 µM.

Take `CCCCN(CCCC)C(=O)CN1C[C@H](c2ccc3c(c2)OCO3)[C@@H](C(=O)O)[C@@H]1CC(C)CCC` (stereo partly drawn) [(2S,3R,4S)-4-Benzo[1,3]dioxol-5-yl-1-dibutylcarbamoylmethyl-2-(2-methyl-pentyl)-pyrrolidine-3-carboxylic acid]: the IC50 turned out to be 71 µM.

On to `CCCCN(CCCC)C(=O)CN1C[C@H](c2ccc3c(c2)OCO3)[C@@H](C(=O)O)[C@@H]1CCN1CCCC1=O` [(2S,3R,4S)-4-Benzo[1,3]dioxol-5-yl-1-dibutylcarbamoylmethyl-2-[2-(2-oxo-pyrrolidin-1-yl)-ethyl]-pyrrolidine-3-carboxylic acid], for which the IC50 was 65.4 µM.

In the case of `CCCCN(CCCC)C(=O)CN1C[C@H](c2ccc3c(c2)OCO3)[C@@H](C(=O)O)[C@@H]1CCC1CCOCC1` [(2S,3R,4S)-4-Benzo[1,3]dioxol-5-yl-1-dibutylcarbamoylmethyl-2-[2-(tetrahydro-pyran-4-yl)-ethyl]-pyrrolidine-3-carboxylic acid], the IC50 was greater than 100 µM.

Consider `CCCCN(CCCC)C(=O)CN1C[C@H](c2ccc3c(c2)OCO3)[C@@H](C(=O)O)[C@@H]1CCC1OCCO1` [(2S,3R,4S)-4-Benzo[1,3]dioxol-5-yl-1-dibutylcarbamoylmethyl-2-(2-[1,3]dioxolan-2-yl-ethyl)-pyrrolidine-3-carboxylic acid], for which the IC50 was greater than 100 µM.

In turn, `C=CCCC[C@H]1[C@H](C(=O)O)[C@@H](c2ccc3c(c2)OCO3)CN1CC(=O)N(CCCC)CCCC` [(2S,3R,4S)-4-Benzo[1,3]dioxol-5-yl-1-dibutylcarbamoylmethyl-2-pent-4-enyl-pyrrolidine-3-carboxylic acid] came in with an IC50 of 60 µM.

`C=C(C)CCC[C@H]1[C@H](C(=O)O)[C@@H](c2ccc3c(c2)OCO3)CN1CC(=O)N(CCCC)CCCC` [(2S,3R,4S)-4-Benzo[1,3]dioxol-5-yl-1-dibutylcarbamoylmethyl-2-(4-methyl-pent-4-enyl)-pyrrolidine-3-carboxylic acid] registered an IC50 of 36 µM.

As for `CCCCN(CCCC)C(=O)CN1C[C@H](c2ccc3c(c2)OCO3)[C@@H](C(=O)O)[C@@H]1CCC1CCCO1` (stereo partly drawn) [(2S,3R,4S)-4-Benzo[1,3]dioxol-5-yl-1-dibutylcarbamoylmethyl-2-[2-(tetrahydro-furan-2-yl)-ethyl]-pyrrolidine-3-carboxylic acid], the IC50 is greater than 100 µM.

Take `CCCCN(CCCC)C(=O)CN1C[C@H](c2ccc3c(c2)OCO3)[C@@H](C(=O)O)[C@@H]1CCCC(C)C` [(2S,3R,4S)-4-Benzo[1,3]dioxol-5-yl-1-dibutylcarbamoylmethyl-2-(4-methyl-pentyl)-pyrrolidine-3-carboxylic acid]: the IC50 came out at 35.8 µM.

`CCCCN(CCCC)C(=O)CN1C[C@H](c2ccc3c(c2)OCO3)[C@@H](C(=O)O)[C@@H]1CCC(CC)CC` [(2S,3R,4S)-4-Benzo[1,3]dioxol-5-yl-1-dibutylcarbamoylmethyl-2-(3-ethyl-pentyl)-pyrrolidine-3-carboxylic acid] registered an IC50 of 72 µM.

`CCCCN(CCCC)C(=O)CN1C[C@H](c2ccc3c(c2)OCO3)[C@@H](C(=O)O)[C@@H]1CCN1CCCCC1=O` [(2S,3R,4S)-4-Benzo[1,3]dioxol-5-yl-1-dibutylcarbamoylmethyl-2-[2-(2-oxo-piperidin-1-yl)-ethyl]-pyrrolidine-3-carboxylic acid] had an IC50 of 85 µM.

`CCCCN(CCCC)C(=O)CN1C[C@H](c2ccc3c(c2)OCO3)[C@@H](C(=O)O)[C@@H]1CCc1ncco1` [(2S,3R,4S)-4-Benzo[1,3]dioxol-5-yl-1-dibutylcarbamoylmethyl-2-(2-oxazol-2-yl-ethyl)-pyrrolidine-3-carboxylic acid] had a concentration for half-maximal inhibition (IC50) greater than 100 µM.

Regarding `CCCCN(CCCC)C(=O)CN1C[C@H](c2ccc3c(c2)OCO3)[C@@H](C(=O)O)[C@@H]1CCC1SCCS1` [(2S,3R,4S)-4-Benzo[1,3]dioxol-5-yl-1-dibutylcarbamoylmethyl-2-(2-[1,3]dithiolan-2-yl-ethyl)-pyrrolidine-3-carboxylic acid], the concentration for half-maximal inhibition (IC50) came out at 29.3 µM.

`CCCCN(CCCC)C(=O)CN1C[C@H](c2ccc3c(c2)OCO3)[C@@H](C(=O)O)[C@@H]1CCC=C(C)C` [(2S,3R,4S)-4-Benzo[1,3]dioxol-5-yl-1-dibutylcarbamoylmethyl-2-(4-methyl-pent-3-enyl)-pyrrolidine-3-carboxylic acid]: the IC50 is 33.2 µM.
